Source: publication PMC11049977, “Antenna-Biased Odorant Receptor PstrOR17 Mediates Attraction of Phyllotreta striolata to (S)-Cis-Verbenol and (−)-Verbenone” (International Journal of Molecular Sciences, 2024)

Target: T1, PstrOR17 (Phyllotreta striolata, UniProt A0A9N9TEW2)
T1 construct: gene PHYEVI_LOCUS1381; full-length ORF (1182 bp, 393 residues) from antennal cDNA in pUAST.attb; expressed in Drosophila melanogaster ab3A empty neurons under DmelOR22-Gal4; endogenous fly Orco not mentioned for the assay; with Odorant receptor coreceptor (Drosophila melanogaster, endogenous in the ab3A neuron)
T1 sequence (A0A9N9TEW2 1-393): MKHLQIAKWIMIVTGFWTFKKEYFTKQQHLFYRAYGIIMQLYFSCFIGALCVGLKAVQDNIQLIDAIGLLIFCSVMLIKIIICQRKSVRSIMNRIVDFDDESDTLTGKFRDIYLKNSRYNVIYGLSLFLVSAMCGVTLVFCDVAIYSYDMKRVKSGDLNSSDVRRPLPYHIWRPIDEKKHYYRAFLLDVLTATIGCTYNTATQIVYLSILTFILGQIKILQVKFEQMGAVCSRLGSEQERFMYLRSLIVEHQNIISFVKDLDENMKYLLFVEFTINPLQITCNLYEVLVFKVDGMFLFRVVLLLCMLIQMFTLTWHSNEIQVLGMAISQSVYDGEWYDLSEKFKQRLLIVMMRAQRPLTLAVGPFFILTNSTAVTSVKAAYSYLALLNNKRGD
T1 sequence (Q9VNB5 1-486 partner): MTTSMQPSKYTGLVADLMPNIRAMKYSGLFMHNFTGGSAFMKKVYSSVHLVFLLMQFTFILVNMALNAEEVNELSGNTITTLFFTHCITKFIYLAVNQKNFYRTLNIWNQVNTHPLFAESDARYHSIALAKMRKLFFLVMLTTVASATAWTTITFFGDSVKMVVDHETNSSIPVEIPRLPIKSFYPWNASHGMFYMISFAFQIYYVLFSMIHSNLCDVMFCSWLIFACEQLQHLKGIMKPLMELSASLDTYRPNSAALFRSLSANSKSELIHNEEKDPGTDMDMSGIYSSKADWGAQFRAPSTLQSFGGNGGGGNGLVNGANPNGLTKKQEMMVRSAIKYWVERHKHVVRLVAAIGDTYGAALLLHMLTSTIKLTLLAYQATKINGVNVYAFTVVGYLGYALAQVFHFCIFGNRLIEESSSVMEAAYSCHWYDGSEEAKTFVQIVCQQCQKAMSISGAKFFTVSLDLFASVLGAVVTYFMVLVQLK
Assay: single sensillum recording, Drosophila empty neuron (ab3A)
Format: cell-based
Conditions: agonist, odour cartridge 10 μL on filter strip

[1] = 10 μg/μL for profile, dose series 10^-5 to 10 mg/mL

SMILES	single sensillum recording, Drosophila empty neuron (ab3A) (10 μg/μL)	single sensillum recording, Drosophila empty neuron (ab3A) [1]
CC1=CCC(C(C)C)=CC1 [γ-terpinene]	moderate responses to five other odorants: α-pinene; (−)-β-pinene; γ-terpinene	
C=C1CC[C@H]2C[C@@H]1C2(C)C [(−)-β-pinene]	moderate responses to five other odorants: α-pinene; (−)-β-pinene	
CC1=CCC2CC1C2(C)C (stereo not drawn) [α-pinene]	PstrOR17 also conferred moderate responses to five other odorants: α-pinene	
CC1=C[C@H](O)[C@H]2C[C@@H]1C2(C)C [(S)-cis-verbenol]		PstrOR17 responded to both (−)-verbenone and (S)-cis-verbenol in a dose-dependent manner
CC1=CC(=O)[C@H]2C[C@@H]1C2(C)C [(−)-verbenone]		PstrOR17 responded to both (−)-verbenone and (S)-cis-verbenol in a dose-dependent manner
